Key:
[1] = target: T1, recombinant human sEH (HsEH) (Homo sapiens, UniProt P34913); test: biochemical
T1 sequence (P34913 1-555): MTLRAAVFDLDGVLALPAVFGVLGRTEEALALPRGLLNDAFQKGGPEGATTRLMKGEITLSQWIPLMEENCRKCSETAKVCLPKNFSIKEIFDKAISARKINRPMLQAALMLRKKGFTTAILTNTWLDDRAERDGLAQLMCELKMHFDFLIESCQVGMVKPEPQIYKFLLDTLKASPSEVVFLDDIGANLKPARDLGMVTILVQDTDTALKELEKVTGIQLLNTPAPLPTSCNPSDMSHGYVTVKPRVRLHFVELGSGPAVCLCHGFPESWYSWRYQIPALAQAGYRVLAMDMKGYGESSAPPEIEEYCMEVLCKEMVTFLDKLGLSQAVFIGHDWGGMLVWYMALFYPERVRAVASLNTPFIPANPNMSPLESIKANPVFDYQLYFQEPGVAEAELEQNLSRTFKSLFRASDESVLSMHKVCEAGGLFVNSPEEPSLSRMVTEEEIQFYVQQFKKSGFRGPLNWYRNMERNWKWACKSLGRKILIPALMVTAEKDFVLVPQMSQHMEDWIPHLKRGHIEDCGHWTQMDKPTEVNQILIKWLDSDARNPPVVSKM

murine sEH (MsEH) = target: T2, murine sEH (MsEH) (Mus musculus, UniProt P34914); test: sEH inhibition, fluorescent-based assay with PHOME substrate; assay type: biochemical
T2 sequence (P34914 1-554): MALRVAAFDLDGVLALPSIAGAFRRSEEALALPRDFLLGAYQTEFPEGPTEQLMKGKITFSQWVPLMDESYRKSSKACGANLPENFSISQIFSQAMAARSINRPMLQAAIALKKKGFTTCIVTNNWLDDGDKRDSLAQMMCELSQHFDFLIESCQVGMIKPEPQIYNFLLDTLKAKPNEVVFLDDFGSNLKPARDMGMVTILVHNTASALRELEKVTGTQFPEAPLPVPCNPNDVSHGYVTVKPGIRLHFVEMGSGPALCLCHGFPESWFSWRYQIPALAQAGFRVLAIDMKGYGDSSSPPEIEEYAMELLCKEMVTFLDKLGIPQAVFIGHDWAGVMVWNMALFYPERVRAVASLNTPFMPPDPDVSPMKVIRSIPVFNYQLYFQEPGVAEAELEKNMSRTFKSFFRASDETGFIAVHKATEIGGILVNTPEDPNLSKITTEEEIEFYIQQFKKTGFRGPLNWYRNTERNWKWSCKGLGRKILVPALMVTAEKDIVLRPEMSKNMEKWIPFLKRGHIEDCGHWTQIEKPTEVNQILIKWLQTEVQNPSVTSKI

[2] = Microsomal stability in human liver microsomes
CFA-induced AIA mice = test: CFA-induced arthritis; assay type: in vivo, Kunming mice; details: 10 mg / kg ip
[3] = tested on: COX-2, sEH, NOS-2 and VCAM; test: Western blot of inflammatory factors in plasma, LPS-induced sepsis model; assay type: in vivo, C57BL/6 mice; details: 5 mg / kg ip
[4] = Microsomal stability in rat liver microsomes
[5] = Pharmacokinetic study in vivo
IL-6, MCP-5 and TNF-α = test: ELISA of plasma inflammatory factors, LPS-induced sepsis model; assay type: in vivo, C57BL/6 mice; details: 5 mg / kg ip
LPS-induced sepsis model = test: LPS-induced sepsis model, survival; assay type: in vivo, C57BL/6 mice; details: 28 hours; LPS 30 mg / kg ip; 5 mg / kg ip at 4 h and 12 h later
[6] = both, Sprague-Dawley, rat, in vivo, iv, 10 mg/kg

Structure (SMILES): C[C@]12C[C@@H]3C[C@](C)(C1)C[C@@](NC(=O)Nc1ccc(C(=O)N4CCC(C(=O)N5CCN(CCO)CC5)CC4)cc1F)(C3)C2 [A4, 1-((1r,3R,5S,7r)-3,5-Dimethyladamantan-1-yl)-3-(2-fluoro-4-(4-(4-(2-hydroxyethyl)piperazine-1-carbonyl)piperidine-1-carbonyl)phenyl)urea]
- IC50 [1]: 12.5 nM
- IC50 (murine sEH (MsEH)): 0.32 nM

Structure (SMILES): CCC(=O)N1CCCN(C(=O)C2CCCN(Cc3ccc(NC(=O)N[C@@]45C[C@@H]6C[C@@](C)(C[C@@](C)(C6)C4)C5)c(F)c3)C2)CC1 (stereo partly drawn) [G1, 1-((1r,3R,5S,7r)-3,5-Dimethyladamantan-1-yl)-3-(2-fluoro-4-((3-(4-propionyl-1,4-diazepane-1-carbonyl)piperidin-1-yl)methyl)phenyl)urea]
- Mean concentration of G1 in microsomal buffer ([2]; time 0): 100 µg/mL
- Mean concentration of G1 in microsomal buffer ([2]; time 10): 81.12 µg/mL
- Mean concentration of G1 in microsomal buffer ([2]; time 30): 74.76 µg/mL
- Mean concentration of G1 in microsomal buffer ([2]; time 60): 68.78 µg/mL
- effect on paw swelling rate, in words (CFA-induced AIA mice): significantly reduced the swelling rate of mouse paw thickness
- increase of pain valve (pain threshold, hot plate) (CFA-induced AIA mice): 70.10%
- reduced foot swelling, thickness (CFA-induced AIA mice): 21.4%
- reduced foot swelling, width (CFA-induced AIA mice): 6.98%
- body weight change (CFA-induced AIA mice; 24 h of drug treatment): increase in body weight
- effect on pain threshold, in words (CFA-induced AIA mice; hot plate): faster onset of analgesia than celecoxib
- time after administration at which analgesic effect began (CFA-induced AIA mice; hot plate): 10 min
- time of peak analgesic effect (CFA-induced AIA mice; hot plate): 2 h
- COX-2 expression levels [3]: higher than in the control group
- NOS-2 expression [3]: reduced NOS-2 expression
- expression of sEH ([3]; compared to the model group): significantly reduced the expression of sEH
- vascular cell adhesion molecule (VCAM) ([3]; compared to the solvent group): little change
- Mean concentration of G1 in microsomal buffer ([4]; time 0): 100 µg/mL
- Mean concentration of G1 in microsomal buffer ([4]; time 10): 75.04 µg/mL
- Mean concentration of G1 in microsomal buffer ([4]; time 30): 66.63 µg/mL
- Mean concentration of G1 in microsomal buffer ([4]; time 60): 62.01 µg/mL
- LLE (ligand lipophilicity efficiency) [1]: 7.553
- AUC(0-inf) [5, 6]: 0.0115 µM·h
- clearance [5, 6]: 4.83 mL/min/kg
- AUC(0-inf) ([5]; both, Sprague-Dawley, rat, in vivo, po, 50 mg/kg): 0.0102 µM·h
- CL ([5]; rats, po 50 mg / kg): 28.3 mL/min/kg
- VZ ([5]; rats, po 50 mg / kg): 13.12 L/kg
- IL-6 levels (IL-6, MCP-5 and TNF-α): significant reduction in IL-6 levels
- TNF-α levels (IL-6, MCP-5 and TNF-α): considerably lowered TNF-α levels
- effect of lowering MCP-5 (IL-6, MCP-5 and TNF-α): lower than dexamethasone

Structure (SMILES): C[C@@H]1C[C@H]2[C@@H]3CCC4=CC(=O)C=C[C@]4(C)[C@@]3(F)[C@@H](O)C[C@]2(C)[C@@]1(O)C(=O)CO [dexamethasone, reference compound]
- COX-2 expression levels [3]: higher than in the control group
- survival rate (LPS-induced sepsis model): all of the mice in the dexamethasone group died
- IL-6 levels (IL-6, MCP-5 and TNF-α): significant reduction in IL-6 levels
- TNF-α levels (IL-6, MCP-5 and TNF-α): considerably lowered TNF-α levels
